This note sets out measurements from patent publication US8846933B2, “N-link hydroxamic acid derivatives useful as antibacterial agents” (Pfizer Inc., priority 2009, dated 2014).

Structures are written as SMILES. Some results are limits rather than exact numbers.

Assay [1] has as its system Escherichia coli EC-1: VOGEL, mouse virulent. The assay can be described thus: MIC determination (CLSI), strain EC-1. In kind it is cell-based. To be noted: strain EC-1; unit assumed. A digest of the protocol:
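The mouse-virulent VOGEL isolate of E. coli, EC-1, served as test organism. Minimum inhibitory concentration was measured by CLSI dilution methodology (M7-A7; M100-S18 standards).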

Assay [2] has as its system Pseudomonas aeruginosa UI-18: Wild-type (PA-7). The assay can be described thus: MIC determination (CLSI), strain PA-7. In kind it is cell-based. To be noted: strain PA-7; unit assumed. A digest of the protocol: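 MIC determined by broth dilution per CLSI M7-A7 guidelines with M100-S18 interpretive standards. Test organism: wild-type Pseudomonas aeruginosa UI-18, designated PA-7.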

The compound `CCOc1ccc(-c2ccn(CC[C@](C)(C(=O)NO)S(C)(=O)=O)c(=O)c2)cc1` [Example 332, (2R)-4-[4-(4-ethoxyphenyl)-2-oxopyridin-1(2H)-yl]-N-hydroxy-2-methyl-2-(methylsulfonyl)butanamide] showed an EC-1 (MIC) in assay [1] of 64 µg/mL. The same compound returned a PA-7 (MIC) in assay [2] of 0.5 µg/mL.

The compound `C[C@@](CCn1ccc(-c2ccc(OCC#N)cc2)cc1=O)(C(=O)NO)S(C)(=O)=O` [Example 333, (2R)-4-{4-[4-(cyanomethoxy)phenyl]-2-oxopyridin-1(2H)-yl}-N-hydroxy-2-methyl-2-(methylsulfonyl)butanamide] gave an EC-1 (MIC) in assay [1] of 16 µg/mL. Also, the PA-7 (MIC) in assay [2] was 8 µg/mL.

Consider `COc1ccc(-c2ccn(CC[C@](C)(C(=O)NO)S(C)(=O)=O)c(=O)c2)cc1Cl` [Example 334, (2R)-4-[4-(3-chloro-4-methoxyphenyl)-2-oxopyridin-1(2H)-yl]-N-hydroxy-2-methyl-2-(methylsulfonyl)butanamide], for which, in assay [1], the EC-1 (MIC) came to 8 µg/mL. The same compound showed a PA-7 (MIC) in assay [2] of 1 µg/mL.

As for `C[C@@](CCn1ccc(-c2cc(F)cc(F)c2)cc1=O)(C(=O)NO)S(C)(=O)=O` [Example 335, (2R)-4-[4-(3,5-difluorophenyl)-2-oxopyridin-1(2H)-yl]-N-hydroxy-2-methyl-2-(methylsulfonyl)butanamide], in assay [1], the EC-1 (MIC) came to 1 µg/mL. This compound came in with a PA-7 (MIC) in assay [2] of 2 µg/mL.

On to `C[C@@](CCn1ccc(-c2cc(Cl)cc(Cl)c2)cc1=O)(C(=O)NO)S(C)(=O)=O` [Example 336, (2R)-4-[4-(3,5-dichlorophenyl)-2-oxopyridin-1(2H)-yl]-N-hydroxy-2-methyl-2-(methylsulfonyl)butanamide], for which the EC-1 (MIC) in assay [1] came out at 4 µg/mL. The PA-7 (MIC) in assay [2] amounted to 8 µg/mL.

In assay [1], `C[C@@](CCn1ccc(-c2ccc(OC3CCNCC3)c(F)c2)cc1=O)(C(=O)NO)S(C)(=O)=O` [Example 337, (2R)-4-{4-[3-fluoro-4-(piperidin-4-yloxy)phenyl]-2-oxopyridin-1(2H)-yl}-N-hydroxy-2-methyl-2-(methylsulfonyl)butanamide] displayed an EC-1 (MIC) greater than 64 µg/mL. In addition, the PA-7 (MIC) in assay [2] is greater than 64 µg/mL.

In the case of `C[C@@](CCn1ccc(-c2ccc(OC(F)F)cc2)cc1=O)(C(=O)NO)S(C)(=O)=O` [Example 338, (2R)-4-{4-[4-(difluoromethoxy)phenyl]-2-oxopyridin-1(2H)-yl}-N-hydroxy-2-methyl-2-(methylsulfonyl)butanamide], the EC-1 (MIC) in assay [1] was determined as 0.5 µg/mL. The PA-7 (MIC) in assay [2] was 0.5 µg/mL.

Compound `C[C@@](CCn1ccc(-c2ccc3c(c2)CCC3=O)cc1=O)(C(=O)NO)S(C)(=O)=O` [Example 339, (2R)-N-hydroxy-2-methyl-2-(methylsulfonyl)-4-[2-oxo-4-(1-oxo-2,3-dihydro-1H-inden-5-yl)pyridin-1(2H)-yl]butanamide] returned an EC-1 (MIC) in assay [1] of 4 µg/mL. Besides, the PA-7 (MIC) in assay [2] was found to be 4 µg/mL.

`C[C@@](CCn1ccc(-c2ccc(-c3cnco3)cc2)cc1=O)(C(=O)NO)S(C)(=O)=O` [Example 340, (2R)-N-hydroxy-2-methyl-2-(methylsulfonyl)-4-{4-[4-(1,3-oxazol-5-yl)phenyl]-2-oxopyridin-1(2H)-yl}butanamide]: the EC-1 (MIC) in assay [1] came out at 0.25 µg/mL. In assay [2], this compound registered a PA-7 (MIC) of 1 µg/mL.

For `C[C@@](CCn1ccc(-c2ccccc2Cl)cc1=O)(C(=O)NO)S(C)(=O)=O` [Example 341, (2R)-4-[4-(2-chlorophenyl)-2-oxopyridin-1(2H)-yl]-N-hydroxy-2-methyl-2-(methylsulfonyl)butanamide], in assay [1], the EC-1 (MIC) stood at 4 µg/mL. This compound also displayed a PA-7 (MIC) in assay [2] of 2 µg/mL.

As to `COc1ccc(-c2ccn(CC[C@](C)(C(=O)NO)S(C)(=O)=O)c(=O)c2)c(Cl)c1` [Example 342, (2R)-4-[4-(2-chloro-4-methoxyphenyl)-2-oxopyridin-1(2H)-yl]-N-hydroxy-2-methyl-2-(methylsulfonyl)butanamide], the EC-1 (MIC) in assay [1] was 0.5 µg/mL. The compound further yielded a PA-7 (MIC) in assay [2] of 0.5 µg/mL.

In assay [1], `CC(C)(C#N)Cc1ccc(-c2ccn(CC[C@](C)(C(=O)NO)S(C)(=O)=O)c(=O)c2)cc1` [Example 343, (2R)-4-{4-[4-(2-cyano-2-methylpropyl)phenyl]-2-oxopyridin-1(2H)-yl}-N-hydroxy-2-methyl-2-(methylsulfonyl)butanamide] came in with an EC-1 (MIC) of 8 µg/mL. Further, the PA-7 (MIC) in assay [2] stood at 2 µg/mL.

`C[C@@](CCn1ccc(-c2ccc(CCCO)c(F)c2)cc1=O)(C(=O)NO)S(C)(=O)=O` [Example 344, (2R)-4-{4-[3-fluoro-4-(3-hydroxypropyl)phenyl]-2-oxopyridin-1(2H)-yl}-N-hydroxy-2-methyl-2-(methylsulfonyl)butanamide] registered an EC-1 (MIC) in assay [1] of 4 µg/mL. Besides, in assay [2], the PA-7 (MIC) is 2 µg/mL.

For `COc1ccc(-c2ccn(CC[C@](C)(C(=O)NO)S(C)(=O)=O)c(=O)c2)c(C)c1` [Example 345, (2R)-N-hydroxy-4-[4-(4-methoxy-2-methylphenyl)-2-oxopyridin-1(2H)-yl]-2-methyl-2-(methylsulfonyl)butanamide], the EC-1 (MIC) in assay [1] was determined as 4 µg/mL. Besides, in assay [2], the PA-7 (MIC) was 4 µg/mL.

`COc1ccc(-c2ccn(CC[C@](C)(C(=O)NO)S(C)(=O)=O)c(=O)c2)cc1C` [Example 346, (2R)-N-hydroxy-4-[4-(4-methoxy-3-methylphenyl)-2-oxopyridin-1(2H)-yl]-2-methyl-2-(methylsulfonyl)butanamide] displayed an EC-1 (MIC) in assay [1] of 0.5 µg/mL. Besides, the PA-7 (MIC) in assay [2] amounted to 0.5 µg/mL.

As to `C[C@@](CCn1ccc(-c2ccc(CCC#N)cc2)cc1=O)(C(=O)NO)S(C)(=O)=O` [Example 347, (2R)-4-{4-[4-(2-cyanoethyl)phenyl]-2-oxopyridin-1(2H)-yl}-N-hydroxy-2-methyl-2-(methylsulfonyl)butanamide], the EC-1 (MIC) in assay [1] was 64 µg/mL. For the same compound, the PA-7 (MIC) in assay [2] worked out at 4 µg/mL.

In assay [1], `C[C@@](CCn1ccc(-c2ccc(OC[C@H]3CC[C@@H](O)CC3)c(F)c2)cc1=O)(C(=O)NO)S(C)(=O)=O` [Example 348, (2R)-4-[4-{3-fluoro-4-[(cis-4-hydroxycyclohexyl)methoxy]phenyl}-2-oxopyridin-1(2H)-yl]-N-hydroxy-2-methyl-2-(methylsulfonyl)butanamide] displayed an EC-1 (MIC) of 0.25 µg/mL. Moreover, the PA-7 (MIC) in assay [2] stood at 1 µg/mL.

`CC1(O)CCC(Oc2ccc(-c3ccn(CC[C@](C)(C(=O)NO)S(C)(=O)=O)c(=O)c3)cc2F)CC1` (stereo partly drawn) [Example 349, (2R)-4-[4-{3-fluoro-4-[(4-hydroxy-4-methylcyclohexyl)oxy]phenyl}-2-oxopyridin-1(2H)-yl]-N-hydroxy-2-methyl-2-(methylsulfonyl)butanamide] showed an EC-1 (MIC) in assay [1] of 0.5 µg/mL. Also, the PA-7 (MIC) in assay [2] is 4 µg/mL.

In assay [1], `CC(C)(CO)c1ccc(-c2ccn(CC[C@](C)(C(=O)NO)S(C)(=O)=O)c(=O)c2)cc1` [Example 350, (2R)-N-hydroxy-4-{4-[4-(2-hydroxy-1,1-dimethylethyl)phenyl]-2-oxopyridin-1(2H)-yl}-2-methyl-2-(methylsulfonyl)butanamide] registered an EC-1 (MIC) of 16 µg/mL. The compound also yielded a PA-7 (MIC) in assay [2] of 16 µg/mL.

In assay [1], `C[C@@](CCn1ccc(-c2ccc(C3(O)CCC3)cc2)cc1=O)(C(=O)NO)S(C)(=O)=O` [Example 351, (2R)-N-hydroxy-4-{4-[4-(1-hydroxycyclobutyl)phenyl]-2-oxopyridin-1(2H)-yl}-2-methyl-2-(methylsulfonyl)butanamide] came in with an EC-1 (MIC) of 16 µg/mL. This compound also came in with a PA-7 (MIC) in assay [2] of 16 µg/mL.

For `COC1(c2ccc(-c3ccn(CC[C@](C)(C(=O)NO)S(C)(=O)=O)c(=O)c3)cc2)CCC1` [Example 352, (2R)-N-hydroxy-4-{4-[4-(1-methoxycyclobutyl)phenyl]-2-oxopyridin-1(2H)-yl}-2-methyl-2-(methylsulfonyl)butanamide], the EC-1 (MIC) in assay [1] amounted to 2 µg/mL. The PA-7 (MIC) in assay [2] amounted to 8 µg/mL.

Consider `C[C@@](CCn1ccc(-c2c(F)cccc2F)cc1=O)(C(=O)NO)S(C)(=O)=O` [Example 353], for which the EC-1 (MIC) in assay [1] was found to be 4 µg/mL. The same compound displayed a PA-7 (MIC) in assay [2] of 1 µg/mL.

`C[C@@](CCn1ccc(-c2ccc(OC(F)(F)F)cc2F)cc1=O)(C(=O)NO)S(C)(=O)=O` [Example 354, (2R)-4-{4-[2-fluoro-4-(trifluoromethoxy)phenyl]-2-oxopyridin-1(2H)-yl}-N-hydroxy-2-methyl-2-(methylsulfonyl)butanamide] had an EC-1 (MIC) in assay [1] of 0.25 µg/mL. Moreover, the PA-7 (MIC) in assay [2] worked out at 0.5 µg/mL.

The compound `C[C@@](CCn1ccc(-c2ccc(SCC#N)cc2)cc1=O)(C(=O)NO)S(C)(=O)=O` [Example 355, (2R)-4-[4-{4-[(cyanomethyl)thio]phenyl}-2-oxopyridin-1(2H)-yl]-N-hydroxy-2-methyl-2-(methylsulfonyl)butanamide] yielded an EC-1 (MIC) in assay [1] of 4 µg/mL. In assay [2], this compound showed a PA-7 (MIC) of 2 µg/mL.

On to `Cc1cc(SCC#N)ccc1-c1ccn(CC[C@](C)(C(=O)NO)S(C)(=O)=O)c(=O)c1` [Example 356, (2R)-4-[4-{4-[(cyanomethyl)thio]-2-methylphenyl}-2-oxopyridin-1(2H)-yl]-N-hydroxy-2-methyl-2-(methylsulfonyl)butanamide], for which the EC-1 (MIC) in assay [1] amounted to 16 µg/mL. This compound had a PA-7 (MIC) in assay [2] of 4 µg/mL.

With `CC(C#N)Sc1ccc(-c2ccn(CC[C@](C)(C(=O)NO)S(C)(=O)=O)c(=O)c2)cc1` (some centres unmarked) [Example 357], in assay [1], the EC-1 (MIC) was determined as 1 µg/mL. This compound also came in with a PA-7 (MIC) in assay [2] of 1 µg/mL.

As for `Cc1cc(-n2nccn2)ccc1-c1ccn(CC[C@](C)(C(=O)NO)S(C)(=O)=O)c(=O)c1` [Example 358, (2R)-N-hydroxy-2-methyl-2-(methylsulfonyl)-4-{4-[2-methyl-4-(2H-1,2,3-triazol-2-yl)phenyl]-2-oxopyridin-1(2H)-yl}butanamide], the EC-1 (MIC) in assay [1] is 0.25 µg/mL. The PA-7 (MIC) in assay [2] is 1 µg/mL.

`C[C@H](O)c1ccc2cc(-c3ccn(CC[C@](C)(C(=O)NO)S(C)(=O)=O)c(=O)c3)ccc2c1` [Example 360, (2R)-N-hydroxy-4-[4-{6-[(1S)-1-hydroxyethyl]-2-naphthyl}-2-oxopyridin-1(2H)-yl]-2-methyl-2-(methylsulfonyl)butanamide] yielded an EC-1 (MIC) in assay [1] of 0.5 µg/mL. The PA-7 (MIC) in assay [2] was determined as 1 µg/mL.
